We go through three molecules from article PMC5314759 (2016).

Experiment [1] concerns poly[d(A-T)2] (DNA, polymer) AT. As to the kind of experiment: ethidium bromide fluorescence displacement. Conditions: apparent; ethidium bromide displaced; Kapp = Kb × 12.6/C50; over 5 h.
Experiment [2] concerns poly[d(G-C)2] (DNA, polymer) GC. Description: UV thermal melting. Conditions: compound concentration not given here; no significant stabilization.
The test system of experiment [3] is poly[d(A-T)2] (DNA, polymer) AT. As to the kind of experiment: UV thermal melting. Conditions: compound concentration not given here; no significant stabilization.
For experiment [4], the system named is poly[d(G-C)2] (DNA, polymer) GC. As to the kind of experiment: ethidium bromide fluorescence displacement. Conditions: apparent; ethidium bromide displaced; Kapp = Kb × 12.6/C50; over 5 h.

`COC1=CC=C2[C@H]3Cc4ccc(OCc5c(C)c(COc6ccc7c8c6O[C@H]6C(OC)=CC=C9[C@@H](C7)N(C)CC[C@]986)c(C)c(COc6ccc7c8c6O[C@H]6C(OC)=CC=C9[C@@H](C7)N(C)CC[C@]986)c5C)c5c4[C@@]2(CCN3C)[C@H]1O5`: the Kapp in experiment [1] is 3.63 × 10^6 M(bp)^-1; in experiment [4], 3.5 × 10^7 M(bp)^-1. For the same molecule, the figures for the ΔTM in experiment [2] and in experiment [3] were 0.36 ± 0.17 °C and −0.17 ± 0.25 °C, respectively.

As to `CO[C@H]1C=C[C@H]2[C@H]3Cc4ccc(OCc5c(C)c(COc6ccc7c8c6O[C@H]6[C@@H](OC)C=C[C@H]9[C@@H](C7)N(C)CC[C@@]896)c(C)c(COc6ccc7c8c6O[C@H]6[C@@H](OC)C=C[C@H]9[C@@H](C7)N(C)CC[C@@]896)c5C)c5c4[C@@]2(CCN3C)[C@H]1O5`, the Kapp in experiment [1] is 9.1 × 10^6 M(bp)^-1; in experiment [4], 1.15 × 10^7 M(bp)^-1. Moreover, the ΔTM in experiment [2] came to 1.72 ± 0.61 °C; in experiment [3], 0.73 ± 0.18 °C.

`Cc1c(COc2ccc3c4c2O[C@H]2[C@@H](O)C=C[C@H]5[C@@H](C3)N(C)CC[C@@]452)c(C)c(COc2ccc3c4c2O[C@H]2[C@@H](O)C=C[C@H]5[C@@H](C3)N(C)CC[C@@]452)c(C)c1COc1ccc2c3c1O[C@H]1[C@@H](O)C=C[C@H]4[C@@H](C2)N(C)CC[C@@]341`: the Kapp in experiment [1] is given as 3.03 × 10^5 M(bp)^-1; in experiment [4], 2.69 × 10^5 M(bp)^-1. The ΔTM is 2.63 ± 0.58 °C in experiment [2] and 0.38 ± 0.71 °C in experiment [3].
